{"source": "patent US8003677B2", "about": "“2-heteroaryl-pyrrolo[3,4-c]pyrrole derivatives and their use as SCD inhibitors” (Sanofi-Aventis, priority 2007, dated 2011)", "data": [{"target": "T1, SCD1 (Rattus norvegicus, UniProt P07308)", "T1 construct": "The resuspended microsome fraction was stored at −80° C; from tissue; host or cells: liver microsomes of male Wistar rats fed a carbohydrate-rich, low-fat diet", "T1 sequence (P07308 1-358)": "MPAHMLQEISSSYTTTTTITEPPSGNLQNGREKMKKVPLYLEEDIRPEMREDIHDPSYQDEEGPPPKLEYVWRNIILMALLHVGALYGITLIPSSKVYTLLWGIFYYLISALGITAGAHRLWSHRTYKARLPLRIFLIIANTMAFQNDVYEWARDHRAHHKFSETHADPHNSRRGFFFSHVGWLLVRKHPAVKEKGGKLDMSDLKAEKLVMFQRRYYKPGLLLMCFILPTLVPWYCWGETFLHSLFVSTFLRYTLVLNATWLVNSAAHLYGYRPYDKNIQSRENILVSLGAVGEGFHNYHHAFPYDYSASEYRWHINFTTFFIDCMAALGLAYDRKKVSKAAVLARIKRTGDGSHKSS", "assay": "stearoyl-CoA desaturase (SCD1) activity in rat liver microsomes, TLC assay with 1-14C-labeled stearic acid", "assay_type": "biochemical", "conditions": "inhibition of SCD1 activity; compound at 10 μM/l; 15 μg rat liver microsomes (male Wistar rats); 37° C., 1 h", "method": "The efficacy of the inventive compounds of the formula I was tested with microsomal enzymes in the following assay system:\nThe livers of male Wistar rats which (to induce the expression of SCD1) had been fed with a carbohydrate-rich, low-fat diet were homogenized with a Potter tissue homogenizer and differential centrifugation in a buffer which contained 250 mM/l of sucrose and 5 mM/l of HEPES (pH 7.0). The resuspended microsome fraction was stored at −80° C. The stearoyl-CoA desaturase activity was determined in a thin-film chromatography assay with 1-^14C-labeled stearic acid. In short, the particular inventive compounds (in DMSO in a final concentration of 1% [v/v]) were incubated with 15 μg of the rat liver microsomes in 200 μl of assay buffer (6 mM/l of MgCl2, 250 mM/l of sucrose, 150 mM/l of KCl, 40 mM/l of NaF, 100 mM/l of Na2HPO4 (pH7.4), 1.3 mM/l of ATP, 1.5 mM/l of reduced glutathione, 60 uM/l of CoA, 0.33 mM/l of nicotinamide and 0.94 mM/l of NADH) at room temperature for 10 min. 0.5 μCi [1-^14C]-stearic acid (55 mCi/mmol) was added, and the mixture was incubated at 37° C. for 1 h. The radioactively labeled fatty acids were subsequently hydrolyzed at 65° C. with 2.5 M KOH/MeOH:H2O (4:1) for 4 h, protonated with 280 μl of formic acid and extracted with 500 μl of hexane. The TLC plates were immersed into 10% AgNO3 and heat-activated before use. 150 μl of the hexane phase were applied to the plates, and the TLC plates were developed in buffer (chloroform:methanol:acetic acid:water [90:8:1:0.8]) and dried. The plates were read off in a phosphoimager to quantify the SCD1 activity.\nThe person skilled in the art can modify this assay in various aspects to determine the inhibition of the stearoyl-CoA desaturase activity.", "units": {"inhibition at 10 µM": "%"}, "values": [{"smiles": "CCOC(=O)c1cnc(N2CC3=C(CN(C(=O)c4ccccc4C(F)(F)F)C3)C2)s1", "note": "[Example 1, Ethyl 2-[5-(2-trifluoromethylbenzoyl)-3,4,5,6-tetrahydro-1H-pyrrolo[3,4-c]pyrrol-2-yl]thiazole-5-carboxylate]", "inhibition at 10 µM": 65}, {"smiles": "O=C(NCCC1CC1)c1cnc(N2CC3=C(CN(C(=O)c4ccccc4C(F)(F)F)C3)C2)s1", "note": "[Example 2, N-(2-Cyclopropylethyl)-2-[5-(2-trifluoromethylbenzoyl)-3,4,5,6-tetrahydro-1H-pyrrolo-[3,4-c]pyrrol-2-yl]thiazole-5-carboxamide]", "inhibition at 10 µM": 31}, {"smiles": "O=C(NCCCc1ccccc1)c1cnc(N2CC3=C(CN(C(=O)c4ccccc4C(F)(F)F)C3)C2)s1", "note": "[Example 9, N-(3-Phenylpropyl)-2-[5-(2-trifluoromethylbenzoyl)-3,4,5,6-tetrahydro-1H-pyrrolo[3,4-c]-pyrrol-2-yl]thiazole-5-carboxamide]", "inhibition at 10 µM": 26}, {"smiles": "CC(C)CCNC(=O)c1ccc(N2CC3=C(CN(C(=O)c4ccccc4C(F)(F)F)C3)C2)nc1", "note": "[Example 10, N-(3-Methylbutyl)-6-[5-(2-trifluoromethylbenzoyl)-3,4,5,6-tetrahydro-1H-pyrrolo[3,4-c]-pyrrol-2-yl]nicotinamide]", "inhibition at 10 µM": 100}, {"smiles": "O=C(NCCc1ccccc1)c1ccc(N2CC3=C(CN(C(=O)c4ccccc4C(F)(F)F)C3)C2)nc1", "note": "[Example 13, N-Phenethyl-6-[5-(2-trifluoromethylbenzoyl)-3,4,5,6-tetrahydro-1H-pyrrolo[3,4-c]pyrrole-2-yl]nicotinamide]", "inhibition at 10 µM": 100}, {"smiles": "O=C(NCCC1CC1)c1ccc(N2CC3=C(CN(C(=O)c4ccccc4C(F)(F)F)C3)C2)nc1", "note": "[Example 14, N-(2-Cyclopropylethyl)-6-[5-(2-trifluoromethylbenzoyl)-3,4,5,6-tetrahydro-1H-pyrrolo-[3,4-c]pyrrol-2-yl]nicotinamide]", "inhibition at 10 µM": 100}, {"smiles": "O=C(NCc1nccs1)c1ccc(N2CC3=C(CN(C(=O)c4ccccc4C(F)(F)F)C3)C2)nc1", "note": "[Example 15, N-Thiazol-2-ylmethyl-6-[5-(2-trifluoromethylbenzoyl)-3,4,5,6-tetrahydro-1H-pyrrolo-[3,4-c]pyrrol-2-yl]nicotinamide]", "inhibition at 10 µM": 100}, {"smiles": "CN(Cc1nccs1)C(=O)c1ccc(N2CC3=C(CN(C(=O)c4ccccc4C(F)(F)F)C3)C2)nc1", "note": "[Example 16, N-Methyl-N-thiazol-2-ylmethyl-6-[5-(2-trifluoromethylbenzoyl)-3,4,5,6-tetrahydro-1H-pyrrolo[3,4-c]pyrrol-2-yl]nicotinamide]", "inhibition at 10 µM": 100}, {"smiles": "O=C(NCC1CC1)c1ccc(N2CC3=C(CN(C(=O)c4ccccc4C(F)(F)F)C3)C2)nc1", "note": "[Example 17, N-Cyclopropylmethyl-6-[5-(2-trifluoromethylbenzoyl)-3,4,5,6-tetrahydro-1H-pyrrolo-[3,4-c]pyrrol-2-yl]nicotinamide]", "inhibition at 10 µM": 97}, {"smiles": "CCC(O)CCNC(=O)c1ccc(N2CC3=C(CN(C(=O)c4cc(OC)ccc4Br)C3)C2)nn1", "note": "(centres unmarked) [Example 18, N-(3-Hydroxypentyl)-6-[5-(2-bromo-5-methoxybenzoyl)-3,4,5,6-tetrahydro-1H-pyrrolo-[3,4-c]pyrrol-2-yl]pyridazine-3-carboxamide]", "inhibition at 10 µM": 38}, {"smiles": "O=C(NCCC1CC1)c1ccc(N2CC3=C(CN(C(=O)c4ccccc4C(F)(F)F)C3)C2)nn1", "note": "[Example 19, N-(2-Cyclopropylethyl)-6-[5-(2-trifluoromethylbenzoyl)-3,4,5,6-tetrahydro-1H-pyrrolo-[3,4-c]pyrrol-2-yl]pyridazine-3-carboxamide]", "inhibition at 10 µM": 100}, {"smiles": "O=C(NCc1cncs1)c1ccc(N2CC3=C(CN(C(=O)c4ccccc4C(F)(F)F)C3)C2)nc1", "note": "[Example 20, N-Thiazol-5-ylmethyl-6-[5-(2-trifluoromethylbenzoyl)-3,4,5,6-tetrahydro-1H-pyrrolo-[3,4-c]pyrrol-2-yl]nicotinamide]", "inhibition at 10 µM": 100}, {"smiles": "O=C(NCC1CCCC1)c1ccc(N2CC3=C(CN(C(=O)c4ccccc4C(F)(F)F)C3)C2)nc1", "note": "[Example 21, N-Cyclopentylmethyl-6-[5-(2-trifluoromethylbenzoyl)-3,4,5,6-tetrahydro-1H-pyrrolo-[3,4-c]pyrrol-2-yl]nicotinamide]", "inhibition at 10 µM": 100}, {"smiles": "O=C(NCCC1CCCC1)c1ccc(N2CC3=C(CN(C(=O)c4ccccc4C(F)(F)F)C3)C2)nc1", "note": "[Example 22, N-(2-Cyclopentylethyl)-6-[5-(2-trifluoromethylbenzoyl)-3,4,5,6-tetrahydro-1H-pyrrolo-[3,4-c]pyrrol-2-yl]nicotinamide]", "inhibition at 10 µM": 100}]}]}
